Structures can show the parent of a compound that is named as a salt. Where two headings read alike, the source gives them in different places.
How the values were obtained:
NRC-03-nhCoV = experiment: microbe, parasite or virus in culture; type: cell-based, SARS-CoV-2
in vitro = conditions: African green monkey, CC50 (Vero-E6)
[1] = Severe acute respiratory syndrome coronavirus 2, Vero C1008, 72 h, Vero-E6 cells, 72 h, crystal violet, reduction of virus-induced CPE by 50%, read-out: IC50 (NRC-03-nhCoV)
[2] = half maximal cytotoxic concentration, MTT assay, Vero-E6 cells
[3] = Vero-E6 cells, 72 h, crystal violet, reduction of virus-induced CPE by 50%, read-out: IC50 (NRC-03-nhCoV)
[4] = read-out: CC50 (Vero-E6), half maximal cytotoxic concentration, MTT assay, Vero-E6 cells
[5] = Severe acute respiratory syndrome coronavirus 2, Vero C1008, negative log of the IC50 value against SARS-CoV-2, read-out: pIC50 (converted)
[6] = Severe acute respiratory syndrome coronavirus 2, Vero C1008, Vero-E6 cells, 72 h, crystal violet, reduction of virus-induced CPE by 50%, read-out: IC50 (NRC-03-nhCoV)

| Compound | IC50 (NRC-03-nhCoV; [1]) | CC50 (in vitro; [2]) | other results |
| --- | --- | --- | --- |
| CC(C)Cc1ccc(C(C)C(=O)O)cc1 (stereo not drawn) [Ibuprofen] | 88.7 µM | 1170 µM |  |
| C[C@@H]1[C@H](O)[C@@H](C)/C=C/C=C/CC/C=C/C=C/C=C/C=C/C(O[C@H]2O[C@H](C)[C@@H](O)[C@H](N)[C@@H]2O)CC2O[C@](O)(CC(O)C(O)CCC(O)CC(O)CC(O)CC(=O)O[C@H]1C)CC(O)C2C(=O)O (stereo partly drawn) [Nystatin] |  |  | IC50 (NRC-03-nhCoV; [3]): 161 µM; CC50 (Vero-E6 cells; [4]): 183 µM |
| CC(C)(O)c1ccccc1CC[C@@H](SCC1(CC(=O)O)CC1)c1cccc(/C=C/c2ccc3ccc(Cl)cc3n2)c1 [Montelukast] |  |  | CC50 (in vitro): 9.86 µM |
| C[C@@H]1C[C@H]2[C@@H]3CCC4=CC(=O)C=C[C@]4(C)[C@@]3(F)[C@@H](O)C[C@]2(C)[C@@]1(O)C(=O)CO [Dexamethasone] | 123 µM | 1900 µM |  |
| C[C@H]1c2cccc(O)c2C(=O)C2=C(O)[C@]3(O)C(=O)C(C(N)=O)=C(O)[C@@H](N(C)C)[C@@H]3[C@@H](O)[C@@H]21 [Doxycycline] | 5.1 µM | 636 µM | IC50 (NRC-03-nhCoV; [5]): 5.13 µM |
| CCC[C@@H]1C[C@@H](C(=O)N[C@@H]([C@H]2O[C@H](SC)[C@H](O)[C@@H](O)[C@H]2O)[C@H](C)Cl)N(C)C1 [Clindamycin] | 15.7 µM |  | IC50 (NRC-03-nhCoV; [3]): 15.7 µM |
| Cc1c(N(C)CS(=O)(=O)O)c(=O)n(-c2ccccc2)n1C [Metamizole sodium] |  |  | IC50 (NRC-03-nhCoV; [3]): 15 µM; CC50 (Vero-E6 cells; [4]): 948 µM |
| COc1c(N2C[C@@H]3CCCN[C@@H]3C2)c(F)cc2c(=O)c(C(=O)O)cn(C3CC3)c12 [Moxifloxacin] | 12.2 µM | 2240 µM |  |
| O=C(O)c1cn(C2CC2)c2cc(N3CCNCC3)c(F)cc2c1=O [Ciprofloxacin] | 61.6 µM |  |  |
| C[C@H]1C[C@@H]2[C@H]([C@@H](O)C[C@@]3(C)[C@H]2CC[C@]3(O)C(=O)CO)[C@@]2(C)C=CC(=O)C=C12 [Methylprednisolone] | 90.4 µM | 3340 µM |  |
| COc1ccc(C[C@@H](C)NC[C@H](O)c2ccc(O)c(NC=O)c2)cc1 [Formoterol Fumarate] |  |  | IC50 (NRC-03-nhCoV; [3]): 71.8 µM; CC50 (Vero-E6 cells): 569 µM |
| Cc1cnc(NC(=O)C2=C(O)c3ccccc3S(=O)(=O)N2C)s1 [Meloxicam] | 12.4 µM | 262 µM |  |
| CCC(=O)O[C@]1(C(=O)SCF)[C@H](C)C[C@H]2[C@@H]3C[C@H](F)C4=CC(=O)C=C[C@]4(C)[C@@]3(F)[C@@H](O)C[C@@]21C [Fluticasone Propionate] | 1.71 µM | 32 µM |  |
| Cc1ccc(-c2cc(C(F)(F)F)nn2-c2ccc(S(N)(=O)=O)cc2)cc1 [Celecoxib] | 13 µM | 140 µM | IC50 (NRC-03-nhCoV; [5]): 12.9 µM |
| c1ccc2c(CC3=NCCN3)cccc2c1 [Naphazoline] | 9.52 µM | 636 µM |  |
| OCc1cc(C(O)CNCCCCCCOCCCCc2ccccc2)ccc1O (stereo not drawn) [Salmeterol] |  | 4.1 µM | IC50 (NRC-03-nhCoV; [6]): 1.5 µM |
| CC1(C)S[C@@H]2[C@H](NC(=O)[C@H](N)c3ccc(O)cc3)C(=O)N2[C@H]1C(=O)O [Amoxicillin] | 16.1 µM | 615 µM |  |
| C[C@]12CCC(=O)C=C1CC[C@@H]1[C@@H]2[C@@H](O)C[C@@]2(C)[C@H]1CC[C@]2(O)C(=O)CO [Hydrocortisone] | 7.1 µM | 614 µM |  |
| CC(=O)Nc1ccc(O)cc1 [Paracetamol] |  | 4980 µM |  |
| CC(=O)Oc1ccccc1C(=O)O [Acetyl Salicylic acid “Aspirin”, Acetyl Salicylic acid] | 12.2 µM | 1260 µM |  |

| Compound | IC50 (NRC-03-nhCoV; [1]) | CC50 (in vitro; [2]) | other results |
| --- | --- | --- | --- |
| CC1=C(C(=O)O)N2C(=O)[C@@H](NC(=O)[C@H](N)c3ccccc3)[C@H]2SC1 [Cephalexin] | 13.2 µM |  |  |
| CO/N=C(\C(=O)N[C@@H]1C(=O)N2C(C(=O)O)=C(COC(C)=O)CS[C@H]12)c1csc(N)n1 [Cefotaxime] | 42.7 µM | 3160 µM |  |
| O=C1CN(/N=C/c2ccc([N+](=O)[O-])o2)C(=O)N1 [Nitrofurantoin] |  |  | IC50 (NRC-03-nhCoV; Severe acute respiratory syndrome coronavirus 2, Vero C1008, 72 h, read-out: IC50 (NRC-03-nhCoV)): 16.2 µM; CC50 (in vitro): 599 µM |
| Cc1onc(-c2c(F)cccc2Cl)c1C(=O)N[C@@H]1C(=O)N2[C@@H]1SC(C)(C)[C@@H]2C(=O)O [Flucloxacillin] | 158 µM | 966 µM |  |
| Neomycin |  |  | IC50 (NRC-03-nhCoV; [3]): 18.1 µM; CC50 (Vero-E6 cells; [4]): 833 µM |
| CN(C)CCC(c1ccc(Cl)cc1)c1ccccn1 (stereo not drawn) [Chlorpheniramine maleate] | 3.6 µM | 466 µM |  |
| O=C(N[C@H](CO)[C@H](O)c1ccc([N+](=O)[O-])cc1)C(Cl)Cl [Chloramphenicol] | 16.9 µM | 33.9 µM | CC50 (Vero-E6 cells; [4]): 33.9 µM |
| CC(=O)NC[C@H]1CN(c2ccc(N3CCOCC3)c(F)c2)C(=O)O1 [Linezolid] | 16.3 µM | 816 µM |  |
| CCN1CCN(C(=O)N[C@@H](C(=O)N[C@@H]2C(=O)N3C(C(=O)O)=C(CSc4nnnn4C)CS[C@H]23)c2ccc(O)cc2)C(=O)C1=O [Cefoperazone] | 12.4 µM | 69 µM |  |
| O=C(O)Cc1ccccc1Nc1c(Cl)cccc1Cl [Diclofenac sodium] | 96.2 µM | 138 µM |  |
| CC(C)(O/N=C(\C(=O)N[C@@H]1C(=O)N2C(C(=O)[O-])=C(C[n+]3ccccc3)CS[C@H]12)c1csc(N)n1)C(=O)O [Ceftazidime] | 46.1 µM | 5550 µM |  |
| C[C@H]1COc2c(N3CCN(C)CC3)c(F)cc3c(=O)c(C(=O)O)cn1c23 [Levofloxacin] | 13.8 µM | 2160 µM |  |
| O=C(c1ccccc1)c1ccc2n1CCC2C(=O)O (stereo not drawn) [Ketorolac Tromethamine] | 153 µM | 2040 µM |  |
| CN1C(C(=O)Nc2ccccn2)=C(O)c2ccccc2S1(=O)=O [Piroxicam] | 8.21 µM | 1800 µM | IC50 (NRC-03-nhCoV; [5]): 8.13 µM |
| CC1(C)S[C@@H]2[C@H](NC(=O)Cc3ccccc3)C(=O)N2[C@H]1C(=O)O [Benzathine penicillin] |  |  | IC50 (NRC-03-nhCoV; [3]): 15.8 µM; CC50 (Vero-E6 cells; [4]): 728 µM |
| CO/N=C(\C(=O)N[C@@H]1C(=O)N2C(C(=O)O)=C(CSc3nc(=O)c(=O)[nH]n3C)CS[C@H]12)c1csc(N)n1 [Ceftriaxone] |  | 446 µM | IC50 (NRC-03-nhCoV; [6]): 16.1 µM |
| NCC[C@H](O)C(=O)N[C@@H]1C[C@H](N)[C@@H](O[C@H]2O[C@H](CN)[C@@H](O)[C@H](O)[C@H]2O)[C@H](O)[C@H]1O[C@H]1O[C@H](CO)[C@@H](O)[C@H](N)[C@H]1O [Amikacin sulphate] |  |  | IC50 (NRC-03-nhCoV; [3]): 16.8 µM; CC50 (Vero-E6 cells; [4]): 2460 µM |
| CC(C)C(=O)OCC(=O)[C@@]12O[C@H](C3CCCCC3)O[C@@H]1C[C@H]1[C@@H]3CCC4=CC(=O)C=C[C@]4(C)[C@H]3[C@@H](O)C[C@@]12C [Ciclesonide] | 4.2 µM | 120 µM |  |
| COc1ccc2c(c1)c(CC(=O)O)c(C)n2C(=O)c1ccc(Cl)cc1 [Indomethacin] | 8.51 µM | 672 µM |  |
